Experimental data from patent publication US4965351A, “4-demethoxy-4-amino-anthracyclines” (Farmitalia Carlo Erba S.R.L., priority 1987, dated 1990).
≈ marks a conversion by molar mass, not a printed value. Where two headings read alike, the source gives them in different places.

Key:
[1] = tested on: human colon adenocarcinoma cells sensitive (LoVo) to doxorubicin; test: Colony inhibition test after 4 h treatment, LoVo (in vitro cytotoxicity); assay type: cell-based; conditions: read-out: LoVo ID50
Experimental: (§1) The glycosides are antitumor agents. The activity of a representative compound of formula (I), 4-demethoxy-4-amino-daunorubicin (Ia), has been assessed by comparing its in vitro cytotoxicity against that of daunorubicin (DNR) in human colon adenocarcinoma cells sensitive (LoVo) or resistant (LoVo/DX) to doxorubicin.
(§2) Colony inhibition test after 4 h. treatment.

[2] = tested on: human colon adenocarcinoma cells resistant (LoVo/DX) to doxorubicin; test: Colony inhibition test after 4 h treatment, LoVo/DX (in vitro cytotoxicity); assay type: cell-based; conditions: read-out: LoVo/DX ID50
Experimental: as §1, §2

[3] = tested on: disseminated Gross leukaemia; test: In vivo activity against disseminated Gross leukaemia in mice, treatment i.v. on day 1 after tumor inoculum
Source text: The in vivo activities of (Ia) and DNR against disseminated Gross leukaemia in mice also determined.
Treatment i.v on day 1 after tumor inoculum
TOX represents toxic death

COc1cccc2c1C(=O)c1c(O)c3c(c(O)c1C2=O)C[C@@](O)(C(C)=O)C[C@@H]3O[C@H]1C[C@H](N)[C@H](O)[C@H](C)O1 [DNR, daunorubicin]
IC50 ([1]; LoVo, 4 h): 50.3 µg/mL (≈ 95.4 µM)
IC50 [2]: 1800 µg/mL (≈ 3420 µM)
T/C % ([3]; 10 mg/Kg i.v. on day 1): 133%
TOX (toxic death) ([3]; 10 mg/Kg i.v. on day 1): 0/10
T/C % ([3]; 15 mg/Kg i.v. on day 1): 167%
TOX (toxic death) ([3]; 15 mg/Kg i.v. on day 1): 0/10
T/C % ([3]; 22.5 mg/Kg i.v. on day 1): 200%
TOX (toxic death) ([3]; 22.5 mg/Kg i.v. on day 1): 1/10

CC(=O)[C@]1(O)Cc2c(O)c3c(c(O)c2[C@@H](O[C@H]2C[C@H](N)[C@H](O)[C@H](C)O2)C1)C(=O)c1c(N)cccc1C3=O [Ia, 4-demethoxy-4-amino-daunorubicin]
IC50 ([1]; LoVo cells (doxorubicin-sensitive), 4 h treatment, colony inhibition): 0.7 µg/mL (≈ 1.37 µM)
IC50 [2]: 99 µg/mL (≈ 193 µM)
T/C % ([3]; 1.6 mg/Kg i.v. on day 1): 183%
TOX (toxic death) ([3]; 1.6 mg/Kg i.v. on day 1): 0/10
T/C % ([3]; 1.9 mg/Kg i.v. on day 1): 192%
TOX (toxic death) ([3]; 1.9 mg/Kg i.v. on day 1): 0/10
T/C % ([3]; 2.29 mg/Kg i.v. on day 1): 200%
TOX (toxic death) ([3]; 2.29 mg/Kg i.v. on day 1): 1/10
